From US10798941B2, “Microbiocidal oxadiazole derivatives” (SYNGENTA PARTICIPATIONS AG, priority 2016, dated 2020)

What follows are compounds tested on Glomerella Lagenarium (Colletotrichum Lagenarium) (assay: Glomerella lagenarium (Colletotrichum lagenarium) liquid culture / cucumber / preventative (anthracnose)). Conditions: Colletotrichum orbiculare; 20 ppm in the applied formulation; liquid culture in PDB, 24° C., inhibition of growth measured photometrically 3 to 4 days after application, vs untreated; read-out: disease control.
Format: cell-based
Procedure: Mycelia fragments or conidia suspensions of a fungus prepared either freshly from liquid cultures of the fungus or from cryogenic storage, are directly mixed into nutrient broth. DMSO solutions of the test compound (max. 10 mg/ml) are diluted with 0.025% Tween20 by a factor of 50 and 10 μl of this solution is pipetted into a microtiter plate (96-well format). The nutrient broth containing the fungal spores/mycelia fragments is then added to give an end concentration of the tested compound. The test plates are incubated in the dark at 24° C. and 96% relative humidity. The inhibition of fungal growth is determined photometrically after 2 to 7 days, depending on the pathosystem, and percent antifungal activity relative to the untreated check is calculated.
Conidia of the fungus from cryogenic storage are directly mixed into nutrient broth (PDB—potato dextrose broth). After placing a (DMSO) solution of test compound into a microtiter plate (96-well format), the nutrient broth containing the fungal spores is added.
The following compounds at 20 ppm in the applied formulation give at least 80% disease control in this test when compared to untreated control under the same conditions, which show extensive disease development.

Row | Structure (SMILES) | inhibition of growth at 20 ppm [%]
1 | Cc1ccc2c(C=O)cn(Cc3ccc(-c4noc(C(F)(F)F)n4)cc3)c2c1 [Compound 1.51, 6-methyl-1-[[4-[5-(trifluoromethyl)-1,2,4-oxadiazol-3-yl]phenyl]methyl]indole-3-carbaldehyde] | ≥ 80
2 | FC(F)(F)c1nc(-c2ccc(Cn3ccc4ccc(Cl)cc43)cc2)no1 [Compound 1.64, 3-[4-[(6-chloroindol-1-yl)methyl]phenyl]-5-(trifluoromethyl)-1,2,4-oxadiazole] | ≥ 80
3 | COC(=O)c1cccc2c1ccn2Cc1ccc(-c2noc(C(F)(F)F)n2)cc1 [Compound 1.66, methyl 1-[[4-[5-(trifluoromethyl)-1,2,4-oxadiazol-3-yl]phenyl]methyl]indole-4-carboxylate] | ≥ 80
4 | COC(=O)c1cc(C(F)(F)F)n(Cc2ccc(-c3noc(C(F)(F)F)n3)cc2)c1C [Compound 1.68, methyl 2-methyl-5-(trifluoromethyl)-1-[[4-[5-(trifluoromethyl)-1,2,4-oxadiazol-3-yl]phenyl]methyl]pyrrole-3-carboxylate] | ≥ 80
5 | FC(F)(F)c1nc(-c2ccc(Cn3c(Br)nc(Br)c3Br)cc2)no1 [Compound 1.69, 3-[4-[(2,4,5-tribromoimidazol-1-yl)methyl]phenyl]-5-(trifluoromethyl)-1,2,4-oxadiazole] | ≥ 80
6 | Cc1c(C=O)c2ccccc2n1Cc1ccc(-c2noc(C(F)(F)F)n2)cc1 [Compound 1.70, 2-methyl-1-[[4-[5-(trifluoromethyl)-1,2,4-oxadiazol-3-yl]phenyl]methyl]indole-3-carbaldehyde] | ≥ 80
7 | FC(F)(F)c1nc(-c2ccc(Cn3c(Br)nc(Cl)c3Cl)cc2)no1 [Compound 1.72, 3-[4-[(2-bromo-4,5-dichloro-imidazol-1-yl)methyl]phenyl]-5-(trifluoromethyl)-1,2,4-oxadiazole] | ≥ 80
8 | CCOC(=O)c1nn(Cc2ccc(-c3noc(C(F)(F)F)n3)cc2)cc1-c1ccccc1 [Compound 1.84, ethyl 4-phenyl-1-[[4-[5-(trifluoromethyl) 1,2,4-oxadiazol-3-yl]phenyl]methyl]pyrazole-3-carboxylate] | ≥ 80
9 | Fc1cc2ncn(Cc3ccc(-c4noc(C(F)(F)F)n4)cc3)c2cc1Cl [Compound 1.92, 3-[4-[(6-chloro-5-fluoro-benzimidazol-1-yl)methyl]phenyl]-5-(trifluoromethyl)-1,2,4-oxadiazole] | ≥ 80
10 | FC(F)(F)c1nc(-c2ccc(Cn3cncn3)c(C(F)(F)F)c2)no1 [Compound 1.98, 3-[4-(1,2,4-triazol-1-ylmethyl)-3-(trifluoromethyl)phenyl]-5-(trifluoromethyl)-1,2,4-oxadiazole] | ≥ 80
11 | Cc1cc(C)n(Cc2ccc(-c3noc(C(F)(F)F)n3)cc2Cl)n1 [Compound 1.100, 3-[3-chloro-4-[(3,5-dimethylpyrazol-1-yl)methyl]phenyl]-5-(trifluoromethyl)-1,2,4-oxadiazole] | ≥ 80
12 | FC(F)(F)c1nc(-c2ccc(Cn3cnc(Br)c3)c(C(F)(F)F)c2)no1 [Compound 1.103, 3-[4-[(4-bromoimidazol-1-yl)methyl]-3-(trifluoromethyl)phenyl]-5-(trifluoromethyl)-1,2,4-oxadiazole] | ≥ 80
13 | COC(=O)c1ncn(Cc2ccc(-c3noc(C(F)(F)F)n3)cc2Cl)c1C(=O)OC [Compound 1.104, dimethyl 1-[[2-chloro-4-[5-(trifluoromethyl)-1,2,4-oxadiazol-3-yl]phenyl]methyl]imidazole-4,5-dicarboxylate] | ≥ 80
14 | N#Cc1ncn(Cc2ccc(-c3noc(C(F)(F)F)n3)cc2Cl)c1C#N [Compound 1.106, 1-[[2-chloro-4-[5-(trifluoromethyl)-1,2,4-oxadiazol-3-yl]phenyl]methyl]imidazole-4,5-dicarbonitrile] | ≥ 80
15 | FC(F)(F)c1nc(-c2ccc(Cn3cnc4ccccc43)c(Cl)c2)no1 [Compound 1.110, 3-[4-(benzimidazol-1-ylmethyl)-3-chloro-phenyl]-5-(trifluoromethyl)-1,2,4-oxadiazole] | ≥ 80
16 | FC(F)(F)c1nc(-c2ccc(Cn3cc(Cl)cn3)c(Cl)c2)no1 [Compound 1.111, 3-[3-chloro-4-[(4-chloropyrazol-1-yl)methyl]phenyl]-5-(trifluoromethyl)-1,2,4-oxadiazole] | ≥ 80

Row | Structure (SMILES) | inhibition of growth at 20 ppm [%]
17 | FC(F)(F)c1nc(-c2ccc(Cn3nnnc3-c3ccc(Cl)cc3)c(Cl)c2)no1 [Compound 1.113, 3-[3-chloro-4-[[5-(4-chlorophenyl)tetrazol-1-yl]methyl]phenyl]-5-(trifluoromethyl)-1,2,4-oxadiazole] | ≥ 80
18 | FC(F)(F)c1nc(-c2ccc(Cn3cc(I)cn3)c(Cl)c2)no1 [Compound 1.114, 3-[3-chloro-4-[(4-iodopyrazol-1-yl)methyl]phenyl]-5-(trifluoromethyl)-1,2,4-oxadiazole] | ≥ 80
19 | FC(F)(F)c1nc(-c2ccc(Cn3cc(Br)cn3)c(Cl)c2)no1 [Compound 1.115, 3-[4-[(4-bromopyrazol-1-yl)methyl]-3-chloro-phenyl]-5-(trifluoromethyl)-1,2,4-oxadiazole] | ≥ 80
20 | COc1cc(-c2noc(C(F)(F)F)n2)ccc1Cn1cncc1Br [Compound 1.116, 3-[4-[(5-bromoimidazol-1-yl)methyl]-3-methoxy-phenyl]-5-(trifluoromethyl)-1,2,4-oxadiazole] | ≥ 80
21 | COc1cc(-c2noc(C(F)(F)F)n2)ccc1Cn1cnc(Br)c1 [Compound 1.117, 3-[4-[(4-bromoimidazol-1-yl)methyl]-3-methoxy-phenyl]-5-(trifluoromethyl)-1,2,4-oxadiazole] | ≥ 80
22 | Cc1nn(Cc2ccc(-c3noc(C(F)(F)F)n3)cc2F)c(C)c1Cl [Compound 1.127, 3-[4-[(4-chloro-3,5-dimethyl-pyrazol-1-yl)methyl]-3-fluoro-phenyl]-5-(trifluoromethyl)-1,2,4-oxadiazole] | ≥ 80
23 | Fc1cc(-c2noc(C(F)(F)F)n2)ccc1Cn1nnnc1-c1ccc(Cl)cc1 [Compound 1.130, 3-[4-[[5-(4-chlorophenyl)tetrazol-1-yl)methyl]-3-fluoro-phenyl]-5-(trifluoromethyl)-1,2,4-oxadiazole] | ≥ 80
24 | COC(=O)c1ncn(Cc2ccc(-c3noc(C(F)(F)F)n3)cn2)n1 [Compound 1.138, methyl 1-[[5-[5-(trifluoromethyl)-1,2,4-oxadiazol-3-yl]-2-pyridyl]methyl]-1,2,4-triazole-3-carboxylate] | ≥ 80
25 | Cc1cc(C)n(Cc2ccc(-c3noc(C(F)(F)F)n3)cn2)n1 [Compound 1.140, 3-[6-[(3,5-dimethylpyrazol-1-yl)methyl]-3-pyridyl]-5-(trifluoromethyl)-1,2,4-oxadiazole] | ≥ 80
26 | CCOC(=O)c1ncn(Cc2ccc(-c3noc(C(F)(F)F)n3)cc2)c1-c1ccccc1 [Compound 1.188, ethyl 5-phenyl-1-[[4-[5-(trifluoromethyl)-1,2,4-oxadiazol-3-yl]phenyl]methyl]imidazole-4-carboxylate] | ≥ 80
27 | CCOC(=O)c1c(-c2ccccc2)ncn1Cc1ccc(-c2noc(C(F)(F)F)n2)cc1 [Compound 1.189, ethyl 5-phenyl-3-[[4-[5-(trifluoromethyl)-1,2,4-oxadiazol-3-yl]phenyl]methyl]imidazole-4-carboxylate] | ≥ 80
28 | Cc1nc2cc(C(F)(F)F)ccc2n1Cc1ccc(-c2noc(C(F)(F)F)n2)cc1 [Compound 1.191, 3-[4-[[2-methyl-5-(trifluoromethyl)benzimidazol-1-yl]methyl]phenyl]-5-(trifluoromethyl)-1,2,4-oxadiazole] | ≥ 80
29 | Cc1cc(C)n(Cc2ccc(-c3noc(C(F)(F)F)n3)nc2)n1 [Compound 1.284, 3-[5-[(3,5-dimethylpyrazol-1-yl)methyl]-2-pyridyl]-5-(trifluoromethyl)-1,2,4-oxadiazole] | ≥ 80
30 | C[C@@H]1CN(Cc2ccc(-c3noc(C(F)(F)F)n3)cc2)C[C@H](C)O1 [Compound 1.307, (2R,6S)-2,6-dimethyl-4-[[4-[5-(trifluoromethyl)-1,2,4-oxadiazol-3-yl]phenyl]methyl]morpholine] | ≥ 80
31 | Cc1cc(C)n(CCc2ccc(-c3noc(C(F)(F)F)n3)cc2)n1 [Compound 1.309, 3-[4-[2-(3,5-dimethylpyrazol-1-yl)ethyl]phenyl]-5-(trifluoromethyl)-1,2,4-oxadiazole] | ≥ 80
